By EC50 is commonly meant the concentration at which the effect is half-maximal.

The text below walks through data of patent US10774076B2, “Benzazole compounds and methods for making and using the compounds” (Rigel Pharmaceuticals, Inc., priority 2015, dated 2020).

One experiment has as its system IL23p19. Nature of the experiment: LPS Induced IL23p19 in THP-1 Cells (with IFNγ Primed) Assay. Type of experiment: cell-based. To be noted: Homo sapiens, IFNγ primed (50 ng/mL), LPS 1 ug/mL, 18 hours, 10 pt, read-out: IL23-p19 ELISA, THP1-IFNy, LPS, 10 pt EC50. The text has this:
LPS Induced IL23p19 in THP-1 Cells (with IFNγ Primed) Assay
THP-1 Cells (ATCC, Cat # TIB-202), Dimethyl Sulfoxide (DMSO) (Sigma-Aldrich, Cat # D2650), RPMI 1640 (Cellgro, Cat #10-040-CM), Fetal Bovine Serum (Sigma, Cat # F4135), Albumin From Bovine Serum (BSA) (Sigma-Aldrich, Cat # A7906), LPS (Serotype K-235, Sigma, Product Number L 2143), IFNγ (Peprotech, Cat #300-02)
Capture antibody: Human IL-23p19 ELISA (e-Bioscience, Cat. #14-7238-85),
Detection antibody: Primary Mouse Biotinylated anti-human IL-12(p40/p70) (e-Bioscience, Cat. #13-7129-85), Secondary HRP-conjugated Streptavidin (R&D Systems, Cat # DY998), 1×PBST Washing Buffer (PBS-Tween tablet) (VWR International, Cat #80058-558), ELISA Blocking Buffer (PBS with 1% BSA), ELISA Dilution Buffer (PBS with 1% BSA), 384 Well Flat-Bottom, MaxiSorp Black Immuno Plates (Thermo Scientific, Cat #12-565-346), 384 Well Flat-Bottom, White Tissue Culture Plates (Thermo Scientific, Cat #12-565-343), Super Signal ELISA Pico Chemiluminescent Substrate (Thermo Scientific, Cat #37070), Cell Titer Glo reagent (Promega, Cat # G7573), Positive control, IKK2VI inhibitor (Calbiochem, Cat #401483), AquaMax 4000 plate washer (Molecular Devices), Luminometer, Wallac Victor2 1420 Multilabel Counter. Method THP-1 Cells Stimulation:
On day 1, 50K/well THP-1 cells were seeded and primed with IFNγ (50 ng/mL) in 384-well plates for about 18 hours in RPMI media with 10% FBS. On day 2, the compound was serially diluted in DMSO from 5 mM in 3-fold dilutions, and then diluted 1:125 in RPMI media with 10% FBS. 50 μL/well 2× compound was added to 50 μL/well THP-1 cells (with IFNγ primed) in duplicate in 384 well tissue culture plates. The cells were pre-incubated with compound for 1 hour at 37° C., 5% CO2 before addition of 10 μL/well 11×LPS to give a final concentration of 1 ug/mL LPS. Day 3, after stimulation for 18 hours at 37° C., 5% CO2, the assay plate was centrifuged and 70 μL/well supernatant was harvested. IL-23p19 protein in 70 μL/well of supernatant was measured by sandwich ELISA, and 25 μl/well Cell Titer Glo reagent was added to the remaining cells to measure compound toxicity.
Human IL-23p19 Sandwich ELISA:
Maxisorp immuno ELISA plates were pre-coated with 25 μL/well of anti-IL-23p19 capture antibody (2.5 ug/mL) in PBS overnight at room temperature. After washing with 1×PBST, the plates were blocked using 100 μL/well of 1% BSA in PBS for 2 hours at room temperature. The plates were washed three times with 1×PBST and 70 μL/well supernatant were added. The plates were incubated at room temperature for 2 hours with shaking and washed three times with 1×PBST. 25 μL/well of biotin labeled anti-IL-12(p40/p70) detection antibody (100 ng/mL) in PBS with 1% BSA was added and the plates were incubated at room temperature for 2 hours with shaking. After washing three times with 1×PBST, 25 μL/well of streptavidin-HRP (1:200) in PBS with 1% BSA was added and the plates were incubated at room temperature for 20 minutes with shaking. The plates were washed three times with 1×PBST and 25 μL/well of Super Signal ELISA Pico Chemiluminescent Substrate were added. The plates were read with a luminometer, and the chemiluminescence values were entered into Athena (Rigel) for curve fitting, EC50 calculation, and database storage.
(In general: An ELISA detects its analyte on a solid surface through an enzyme-linked reagent.)

A further experiment concerns IL23-p19. As to the kind of experiment: Compound screening using DC cells: LPS-induced IL-23 (p19/p40) ELISA in IFNγ-primed dendritic cells differentiated from human PBMC. It counts as cell-based. The following applies: Dendritic cell, human PBMC-derived dendritic cells, LPS 1 μg/ml, 18 hours, 10 pt. As for the experimental part:
Compound Screening Using DC Cells
Human PBMC cells (400 million) obtained from the vendor were transferred into a T-175 flask containing 15 ml RPMI media (10% FBS) and incubate for 2 hours at 37° C. After 2 hours, the media including floating cells was aspirated out carefully and 12 ml of fresh RPMI media (10% FBS) containing GMCSF (100 ng/ml) and IL4 (20 ng/ml) was added, and the flask was kept in a 37° C. incubator for 7 days.
After 3 days, fresh GMCSF (100 ng/ml) and IL4 (20 ng/ml) were added to the flask and the incubation continued. After 7 days, the fully differentiated cells were harvested by spinning down (1200 rpm/5 min) and aspirating the media. The cells were suspended in fresh RPMI media (10% FBS) containing 50 ng/ml IFNγ (1000 U/ml) and then plated (50K/well in 100 μl) onto a white clear bottom 96 well plate and left in a 37° C. incubator for 24 hours.
After 24 hours incubation, 100 μl of RPMI media was added containing 2× concentrated test compound per well to the above cell-culture media (final concentration becomes 1×) and the plates were pre-incubated for 1 hour at 37° C. before stimulating with LPS.
After 1 hour compound pre-incubation, 10 μl per well of 20× concentrated LPS solution in RPMI media was added to give a final concentration of 1 μg/ml. The mixture was shaken and incubated the plates at 37° C. for an additional 18 hours.
155 μl of the supernatant was harvested from each well carefully (without the tip touching the bottom of the well) and to the remaining 50 μl/well of the cell culture plate was added 50 μl of Cell Titer Glo reagent. The mixture was incubated for 1-2 minutes on a shaker and the plate was read for luminescence intensity to determine the compound cytotoxicity. The cell culture supernatant collected above was used to carry out IL23 ELISA (65 μl—Supernatant) and IL10 ELISA (90 μl—Supernatant) as described below.
Human IL-23 (p19/p40) ELISA Protocol (e-Biosciences)
To 10.5 ml PBS add 50 μl of anti-IL23 (p19) was added capture antibody (2.5 μg/ml). The mixture was mixed well and 100 μl of the coating solution was added to each well of the 96 well white plates from Pierce. The wells were covered and incubated overnight at 4° C.
The anti-IL23 (p19)-antibody-coated plates were washed 2× using TBST (use plate washer) and blocked using 200 μl of 0.5% Casein for 1.5-2 hours at room temperature with shaking.
The plates were washed 2× using TBST and the supernatant was transferred (65 μl/well) to the above pre-blocked/IL23(p19)-antibody-coated 96 well plate, and incubated at room temperature for 1.5 hours with shaking.
The plates were washed 4× using TBST (plate washer) and 100 μl/well detection antibody solution prepared from 2 μl of biotin labeled anti-IL-12 (p40/p70) antibody in 11 ml 1% BSA/PBS solution (I-5000 dilution) was added. The plates were incubated for 1 hour with shaking at Room temperature.
Again, the plates were washed 4× with TBST and 100 μl of HRP labeled Streptavidin (R&D Systems) solution (10 μl/10 ml 1% BSA solution) was added, and the plates were incubated at room temperature for another 45 minutes with shaking.
After 45 minutes, the plates were washed with TBST 4× and 100 ul/well Super Signal ELISA Pico Chemiluminescent Substrate from Pierce (3.5 ml A+3.5 ml B+3.5 ml MQ water) was added. The plates were shaken for 1-2 minutes then read on a plate reader.

`O=C(Nc1cc2oc(N3CCOCC3)nc2cc1N1CCC(F)CC1)c1ccc(-c2cn[nH]c2)o1` [Compound I-23, N-(5-(4-fluoropiperidin-1-yl)-2-morpholinobenzo[d]oxazol-6-yl)-5-(1H-pyrazol-4-yl)furan-2-carboxamide]: the EC50 is 0.0757 µM in the experiment on IL23p19 and 0.157 µM in the experiment with IL23-p19.
In the same order, the values of `Cc1cc(-c2ccc(C(=O)Nc3cc4oc(N5CCOCC5)nc4cc3N3CCC(F)CC3)o2)ccn1` [Compound I-24, N-(5-(4-fluoropiperidin-1-yl)-2-morpholinobenzo[d]oxazol-6-yl)-5-(2-methylpyridin-4-yl)furan-2-carboxamide] are 1.08 µM and 5.77 µM.
For `O=C(Nc1cc2oc(N3CCOCC3)nc2cc1N1CCC(F)CC1)c1csc(-c2cn[nH]c2)n1` [Compound I-25, N-(5-(4-fluoropiperidin-1-yl)-2-morpholinobenzo[d]oxazol-6-yl)-2-(1H-pyrazol-4-yl)thiazole-4-carboxamide], the EC50 in the experiment with IL23p19 is 0.0482 µM; with IL23-p19, 0.121 µM.
The like results for `O=C(Nc1cc2oc(N3CCOCC3)nc2cc1N1CCC(F)(F)CC1)c1ccc(-c2cn[nH]c2)o1` [Compound I-27, N-(5-(4,4-difluoropiperidin-1-yl)-2-morpholinobenzo[d]oxazol-6-yl)-5-(1H-pyrazol-4-yl)furan-2-carboxamide] were, in that order, 0.527 µM and 0.747 µM.
In the same order, the values of `O=C(Nc1cc2oc(N3CCOCC3)nc2cc1N1CCC(F)(F)CC1)c1csc(-c2cn[nH]c2)n1` [Compound I-29, N-(5-(4,4-difluoropiperidin-1-yl)-2-morpholinobenzo[d]oxazol-6-yl)-2-(1H-pyrazol-4-yl)thiazole-4-carboxamide] are 0.302 µM and 0.106 µM.
The like results for `O=C(Nc1cc2oc(N3CCCCC3)nc2cc1N1CCCCC1)c1ccc(-c2cn[nH]c2)o1` [Compound I-31, N-(2,5-di(piperidin-1-yl)benzo[d]oxazol-6-yl)-5-(1H-pyrazol-4-yl)furan-2-carboxamide] were, in that order, 0.144 µM and 0.444 µM.
For `O=C(Nc1cc2oc(N3CCCCC3)nc2cc1N1CCCCC1)c1ccc(-c2cc[nH]n2)o1` [Compound I-32, N-(2,5-di(piperidin-1-yl)benzo[d]oxazol-6-yl)-5-(1H-pyrazol-3-yl)furan-2-carboxamide], the EC50 was determined as 1.78 µM in the experiment on IL23p19 and 24.1 µM in the experiment with IL23-p19.
In the same order, the values of `O=C(Nc1cc2oc(N3CCCCC3)nc2cc1N1CCCCC1)c1csc(-c2cn[nH]c2)n1` [Compound I-35, N-(2,5-di(piperidin-1-yl)benzo[d]oxazol-6-yl)-2-(1H-pyrazol-4-yl)thiazole-4-carboxamide] are 0.321 µM and 0.666 µM.
In the same order, the values of `O=C(Nc1cc2oc(N3CCOCC3)nc2cc1N1CCCC(F)C1)c1ccc(-c2cn[nH]c2)o1` (stereo not drawn) [Compound I-38, N-(5-(3-fluoropiperidin-1-yl)-2-morpholinobenzo[d]oxazol-6-yl)-5-(1H-pyrazol-4-yl)furan-2-carboxamide] are 0.0316 µM and 0.0141 µM.
In the same order, the values of `Cc1cc(-c2ccc(C(=O)Nc3cc4oc(N5CCOCC5)nc4cc3N3CCCC(F)C3)o2)ccn1` (stereo not drawn) [Compound I-39, N-(5-(3-fluoropiperidin-1-yl)-2-morpholinobenzo[d]oxazol-6-yl)-5-(2-methylpyridin-4-yl)furan-2-carboxamide] are 0.355 µM and 8.07 µM.
Turning to `O=C(Nc1cc2oc(N3CCOCC3)nc2cc1N1CCCC(F)C1)c1csc(-c2cn[nH]c2)n1` (stereo not drawn) [Compound I-40, N-(5-(3-fluoropiperidin-1-yl)-2-morpholinobenzo[d]oxazol-6-yl)-2-(1H-pyrazol-4-yl)thiazole-4-carboxamide], the values for the EC50 in the experiment on IL23p19 and in the experiment on IL23-p19 were 0.025 µM and 0.041 µM, respectively.
In the same order, the values of `Cc1cc(-c2nc(C(=O)Nc3cc4oc(N5CCOCC5)nc4cc3N3CCCC(F)C3)cs2)ccn1` (stereo not drawn) [Compound I-41, N-(5-(3-fluoropiperidin-1-yl)-2-morpholinobenzo[d]oxazol-6-yl)-2-(2-methylpyridin-4-yl)thiazole-4-carboxamide] are 0.147 µM and 2.58 µM.
